Series [1] concerns MRSA USA300 biofilms. As to the kind of experiment: Biofilm inhibition by >95% pure peptides (crystal violet), MRSA. Format: cell-based, methicillin resistant Staphylococcus aureus. Conditions: for minimum inhibitory concentration of peptide that inhibited at least 90% of biofilm growth (MBIC90): MRSA USA300 biofilms, >95% pure peptides, 10% TSB + 0.1% glucose.
The subject of series [2] is PAO1 biofilms on human skin organoid. Nature of the series: Skin organoid biofilm infection model, peptide solution, PAO1. Format: cell-based, Pseudomonas aeruginosa. The note with it: peptide solution 4 hrs (FIG. 3B).
Series [3] deals with P. aeruginosa PAO1 biofilms. Conditions: for Biofilm growth inhibition: P. aeruginosa PAO1 (FIG. 20D); for minimum inhibitory concentration of peptide that inhibited at least 90% of biofilm growth (MBIC90): P. aeruginosa PAO1 biofilms, >95% pure peptides, BM2 minimal media; for More active than AB103-D against PAO1 biofilms: PAO1, >95% pure peptides.
For series [4], the system named is MRSA USA300. As to the kind of experiment: Murine sinusitis model, MRSA. The series is classed as in vivo, mouse; methicillin resistant Staphylococcus aureus. The note with it: MRSA USA300, 0.1 mg dose, compared to DJK5. The text has this:
(§1) FIGS. 15A-15I show peptides AB101-D, AB102-D and AB103-D compared to DJK5 in a murine sinusitis model of bacterial infections. MRSA USA300, nasal cavity (FIG. 15A) P. aeruginosa LESB58 (FIG. 15B and FIG. 15C, nasal cavity); MRSA USA300, lung tissue (FIG. 15D) P. aeruginosa LESB58 (FIG. 15E and FIG. 15F, lung tissue); and MRSA USA300, weight change (FIG. 15G) P. aeruginosa LESB58 (FIG. 15H and FIG. 15I, weight change).
(§2) A murine sinusitis model of bacterial infections in the nasal cavity of mice [Alford et al. (2021). Murine model of sinusitis infection for screening antimicrobial and immunomodulatory therapies. Frontiers in Cellular and Infection Microbiology., 11, 621081] was used to determine the efficacy of D-amino acid peptides AB101-D, AB102-D and AB103-D compared to DJK5. […]. Treatment was applied either as dropwise administration of a peptide solution (20 μl) to the infected naris of a mouse (FIGS. 15A, 15B, 15D, 15E, 15G, 15H) or peptide was delivered using a Respimat® inhaler device (FIGS. 15C, 15F, 15I). Mice were monitored and weighed once daily for up to three days then euthanized prior to collection of nasal lavage fluid and lung tissue for bacterial enumeration. The limit of detection is shown by the dotted line at log CFU=2. […] Accordingly, the results indicated enhanced efficacy of D-amino acid peptides AB101-D, AB102-D and AB103-D compared to DJK5 in this murine model.

Series [5] relates to 3-day-old oral plaque (multispecies) biofilms. Nature of the series: Oral plaque biofilm model, long-term (1-3 days) exposure, dead cell volume. The series is classed as cell-based. Conditions: 1 or 5 μg/ml, daily for 3 days, compared to DJK5 (FIG. 16A).
The subject of series [6] is PAO1 preformed biofilms. The note with it: read-out: Biofilm Eradication IC50; PAO1, 24-hr preformed biofilms treated overnight, TTC.
The subject of series [7] is MRSA biofilms on human skin organoid. As to the kind of experiment: Skin organoid biofilm infection model, peptide solution, MRSA. Format: cell-based, methicillin resistant Staphylococcus aureus. Conditions: peptide solution 4 hrs (FIG. 3A).
Series [8] can be described thus: Peptide aggregation in RPMI + 10% FBS with PBMCs (microscopy). Format: physicochemical. The note with it: overnight. Here is the method:
Peptide Aggregation: Peptide aggregation was assessed qualitatively by examining samples of peptides mixed with PBMCs following overnight incubation at 37 °C and 5% CO2. All samples were prepared in RPMI media containing 10% FBS the same manner as the cytotoxicity assays described above. Visualization of aggregates was done using a Nikon Eclipse TS100 Inverted Microscope at 10× magnification.
In aggregation studies, peptides were added to PBMCs in RPMI media containing 10% FBS and incubated overnight at 37 °C in 5% CO2.
The peptides were also evaluated for their tendency to aggregate when added to RPMI tissue culture media containing 10% fetal bovine serum in the presence of PBMCs. Peptides were added to PBMCs in RPMI media containing 10% FBS and incubated overnight at 37 °C in 5% CO2. […] Compared to a highly aggregation prone peptide, 1018 [Haney, E. F., et al. (2017). Aggregation and its influence on the immunomodulatory activity of synthetic innate defense regulator peptides.
As with the DJK-5 derivatives above, the AB103-D derivatives were evaluated for their tendency to aggregate when added to RPMI tissue culture media containing 10% fetal bovine serum in the presence of PBMCs. Peptides were added to PBMCs in RPMI media containing 10% FBS and incubated overnight at 37 °C in 5% CO2.

The test system of series [9] is human bronchiolar epithelial cells (HBEs). As to the kind of experiment: Cytotoxicity (LDH release), human bronchiolar epithelial cells. On the technique in general: LDH leaks from cells whose membrane has failed.
Series [10] relates to P. aeruginosa LESB58. Nature of the series: Murine sinusitis model, P. aeruginosa. Format: in vivo, mouse; Pseudomonas aeruginosa. Conditions: P. aeruginosa LESB58, 0.1 mg dose, compared to DJK5.
Description: as §1, §2

The test system of series [11] is N/TERT keratinocytes. As to the kind of experiment: Cytotoxicity (LDH release), N/TERT keratinocytes.
Series [12] deals with MRSA preformed biofilms. As to the kind of experiment: Biofilm eradication of 24-hr preformed biofilms (TTC metabolic dye), MRSA. Format: cell-based, methicillin resistant Staphylococcus aureus. The note with it: 24-hr preformed biofilms treated overnight.
Series [13] concerns peripheral blood mononuclear cells (PBMCs). Nature of the series: Cytotoxicity (LDH release), PBMCs.
Series [14] deals with P. aeruginosa PAO1 biofilms. Nature of the series: Biofilm inhibition by SPOT-synthesized AB103-D variants (crystal violet), P. aeruginosa. Format: cell-based, Pseudomonas aeruginosa. The note with it: P. aeruginosa PAO1, SPOT peptides.
Series [15] concerns red blood cells. Nature of the series: Hemolysis. Conditions: 4 hours. Format: cell-based, human. The protocol:
Hemolysis: Peptide induced hemolysis was evaluated according to methods described previously [Hilchie, A. L., et al. (2016). Mastoparan is a membranolytic anti-cancer peptide that works synergistically with gemcitabine in a mouse model of mammary carcinoma. Biochimica Et Biophysica Acta, 1858(12), 3195-3204]. Briefly, red blood cells were obtained, with human ethics approval, from the blood of healthy volunteers collected in a sodium heparin tube and then rinsed three times in PBS, centrifuging between washes, to obtain the hematocrit (100% RBC). A 2.5% RBCs suspension was exposed to peptide at varying concentrations and incubated at 37 C in a 5% CO2 humidified atmosphere for 4 hours. Supernatants were collected following centrifugation (1100 rpm) and transferred to a flat bottom microtitre plate. The absorbance (490 nm) of each supernatant was measured on a BioTek Epoch Microplate Spectrophotometer. Percent hemolysis was calculated by comparing the absorbance arising from peptide treated cells to RBCs treated with […] (0% hemolysis) or lysed with 1% Triton X-100 (100% hemolysis).

Series [16] has as its system P. aeruginosa PAO1 planktonic cells. Nature of the series: Planktonic growth inhibition by pure AB103-D derivatives, P. aeruginosa. The series is classed as cell-based, Pseudomonas aeruginosa. Here is the method:
(§3) The effect of peptide on bacterial and biofilm growth was assessed using the biofilm inhibition assay [Haney, E. F., Trimble, M. J., & Hancock, R. E. W. (2021) FIGS. 20A-20D. Microtiter plate assays to assess antibiofilm activity against bacteria. Nature Protocols, 16(5), 2615-2632]. The effect of peptide on planktonic growth and biofilm growth of MRSA USA300 (FIG. 20A, FIG. 20C) and P. aeruginosa PAO1 (FIGS. 20B, 20D) was assessed and compared to the activity seen for AB103-D (gray stars) and DJK5 (gray open circles). Data shown are the average of three biological replicates. Error bars have been omitted for clarity. […]. The results indicated enhanced antibiofilm and antibacterial activity of AB103-D derivatives compared to DJK5.

For series [17], the system named is MRSA USA300 planktonic cells. Nature of the series: Planktonic growth inhibition by pure AB103-D derivatives, MRSA. Format: cell-based, methicillin resistant Staphylococcus aureus. Here is the method:
as §3

The mark [18] stands for this setting: 200 μg/ml or highest concentration.

Here are results for four compounds from patent publication US20260374818A1, “CATIONIC PEPTIDES WITH BROAD SPECTRUM ACTIVITY” (priority 2023, published 2026).

Where a SMILES comes first, the peptide text is derived from it. [ ]: non-standard residue; d: D form.

The IC50 is the concentration needed to halve the response being measured. Take `CC[C@@H](C)[C@@H](NC(=O)[C@@H](CCCNC(=N)N)NC(=O)[C@@H](CCCCN)NC(=O)[C@@H](CCCNC(=N)N)NC(=O)[C@H](NC(=O)[C@H](NC(=O)[C@@H](CCCNC(=N)N)NC(=O)[C@H](NC(=O)[C@H](N)CCCNC(=N)N)C(C)C)C(C)C)[C@H](C)CC)C(=O)N[C@H](CCCNC(=N)N)C(=O)N[C@H](Cc1c[nH]c2ccccc12)C(=O)N[C@@H](C(N)=O)C(C)C` [AB102-D, rvrvirkrirwv-NH2] (H-[dR][dV][dR][dV][dI][dR][dK][dR][dI][dR][dW][dV]-NH2): the IC50 in series [1] (MRSA, 24 hours) worked out at 0.15 µM; in [3] (read-out: Biofilm Inhibition IC50, PAO1, 24 hours, crystal violet), 16.5 µM; in series [6], 23 µM; in series [12], 3.7 µM. For the same compound, the “Antibiofilm activity on skin organoid” value in series [2] and in series [7] was “excellent antibiofilm activity” each time. Further, the “Bacteria in nasal cavity and lungs” value in [4] was “reduced the amount of bacteria in the nasal cavity and lungs of mice much more than DJK5 treatment”; in [10], “reduced the amount of bacteria in the nasal cavity and lungs of mice much more than DJK5 treatment”. Moreover, in series [5], the “Proportion of dead biofilm cells” value is given as “killed more of the biofilm cells”. In addition, the Peptide aggregation entry in series [8] (50 μg/ml) is listed as “No appreciable aggregation”. Moreover, the “Cytotoxicity (LDH)” value in [9], in series [11] and in series [13] was “low toxicity” in each case.

Take `CC[C@@H](C)[C@@H](NC(=O)[C@@H](C)NC(=O)[C@@H](CCCNC(=N)N)NC(=O)[C@@H](Cc1c[nH]c2ccccc12)NC(=O)[C@@H](CCC(N)=O)NC(=O)[C@H](NC(=O)[C@@H](CCCNC(=N)N)NC(=O)[C@H](NC(=O)[C@H](NC(=O)[C@@H](Cc1c[nH]c2ccccc12)NC(=O)[C@H](NC(=O)[C@H](N)CCCNC(=N)N)C(C)C)C(C)C)[C@H](C)CC)C(C)C)C(N)=O` [AB109-D, rvwvirvqwrai] (H-[dR][dV][dW][dV][dI][dR][dV][dQ][dW][dR][dA][dI]-NH2): the entries for the “minimum inhibitory concentration of peptide that inhibited at least 90% of biofilm growth (MBIC90)” value in series [1] and in series [3] (crystal violet) were 1 µM and 2 µM, respectively. Moreover, the Biofilm growth inhibition entry in series [3] is reported as “among the most active”. Also, the “More active than AB103-D against PAO1 biofilms” value (from here on “More active than AB103-D”) in [3] is “up to 4 fold”. In addition, the figures for the Peptide aggregation result in [8] (50 μg/ml) and in series [8] (setting [18]) were “peptide aggregation was again observed” and “strongly aggregated”, respectively. For the same compound, the “Activity against PAO1 biofilms compared to AB103-D” value (“Activity … compared to AB103-D” for short) in [14] is recorded as “activity superior to that of AB103-D”. Besides, the Hemolysis result in series [15] is reported as “substantial hemolysis at concentrations higher than 25 μg/ml”. For the same compound, in series [13], the “Cytotoxicity (LDH)” value is given as “most toxic towards PBMCs at the highest peptide concentration evaluated of 200 μg/ml”. In addition, the Planktonic growth inhibition result in series [16] is on record as “among the most active”.

In the case of `CC[C@@H](C)[C@@H](NC(=O)[C@H](NC(=O)[C@@H](CCCNC(=N)N)NC(=O)[C@@H](Cc1c[nH]c2ccccc12)NC(=O)[C@@H](CCC(N)=O)NC(=O)[C@H](NC(=O)[C@@H](CCCNC(=N)N)NC(=O)[C@H](NC(=O)[C@H](NC(=O)[C@@H](CCCNC(=N)N)NC(=O)[C@H](NC(=O)[C@H](N)CCCNC(=N)N)C(C)C)C(C)C)[C@H](C)CC)C(C)C)[C@H](C)CC)C(N)=O` [AB112-D, rvrvirvqwrii] (H-[dR][dV][dR][dV][dI][dR][dV][dQ][dW][dR][dI][dI]-NH2), the “minimum inhibitory concentration of peptide that inhibited at least 90% of biofilm growth (MBIC90)” value in series [1] came out at 1 µM; in [3] (crystal violet), 2 µM. Besides, the Biofilm growth inhibition entry in series [3] was “among the most active”. The “More active than AB103-D” value in [3] is on record as “up to 4 fold”. In addition, the Peptide aggregation result in series [8] (50 μg/ml) is “peptide aggregation was again observed”; in [8] (setting [18]), “strongly aggregated”. Further, the “Activity … compared to AB103-D” value in series [14] is on record as “activity superior to that of AB103-D”. Further, in series [16], the Planktonic growth inhibition entry was “among the most active”.

Regarding `CC[C@@H](C)[C@@H](NC(=O)[C@@H](CCCNC(=N)N)NC(=O)[C@@H](CCCNC(=N)N)NC(=O)[C@@H](Cc1c[nH]c2ccccc12)NC(=O)[C@@H](CCC(N)=O)NC(=O)[C@H](NC(=O)[C@@H](CCCNC(=N)N)NC(=O)[C@H](NC(=O)[C@H](NC(=O)[C@@H](CCCNC(=N)N)NC(=O)[C@H](NC(=O)[C@H](N)CCCNC(=N)N)C(C)C)C(C)C)[C@H](C)CC)C(C)C)C(N)=O` [AB113-D, rvrvirvqwrri] (H-[dR][dV][dR][dV][dI][dR][dV][dQ][dW][dR][dR][dI]-NH2), the “minimum inhibitory concentration of peptide that inhibited at least 90% of biofilm growth (MBIC90)” value turned out to be 0.5 µM in [1] and 2 µM in series [3] (crystal violet). In addition, the Biofilm growth inhibition entry in [3] is “among the most active”. The “More active than AB103-D” value in [3] is “up to 4 fold”. Moreover, the values for the Planktonic growth inhibition result in series [17] and in series [16] were “among the most active against planktonic cells” and “among the most active”, respectively. In addition, the “Activity … compared to AB103-D” value in series [14] is “activity superior to that of AB103-D”.
